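Cultured in 96-well plates, cells were exposed to test compound for 48 hours across five concentrations. GI50 is the concentration that inhibits growth by half.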 Calls of active or inactive are those of the source. Cut-off read from the data, not from the text of the source: active = GI50 up to about 1.1 µM and inactive = higher.
What was measured:
Assay in all cases: NCI tumour cell line growth inhibition, 48 h
786-0 = tested on: 786-0
A498 = tested on: A498
A549 = tested on: A549
ACHN = tested on: ACHN
BT-549 = tested on: BT-549
CAKI-1 = tested on: CAKI-1
CCRF-CEM = tested on: CCRF-CEM
COLO 205 = tested on: COLO 205
DU-145 = tested on: DU-145
EKVX = tested on: EKVX
HCC 2998 = tested on: HCC 2998
HCT-116 = tested on: HCT-116
HCT-15 = tested on: HCT-15
HL-60 = tested on: HL-60
HOP-62 = tested on: HOP-62
HOP-92 = tested on: HOP-92
HT-29 = tested on: HT-29
Hs-578T = tested on: Hs-578T
IGROV-1 = tested on: IGROV-1
K562 = tested on: K562
KM12 = tested on: KM12
LOX IMVI = tested on: LOX IMVI
M14 = tested on: M14
MCF7 = tested on: MCF7
MDA-MB-231 = tested on: MDA-MB-231
MDA-MB-435 = tested on: MDA-MB-435
MDA-N = tested on: MDA-N
MOLT-4 = tested on: MOLT-4
Malme-3M = tested on: Malme-3M
NCI-H226 = tested on: NCI-H226
NCI-H23 = tested on: NCI-H23
NCI-H460 = tested on: NCI-H460
NCI-H522 = tested on: NCI-H522
NCI/ADR-RES = tested on: NCI/ADR-RES
OVCAR-3 = tested on: OVCAR-3
OVCAR-4 = tested on: OVCAR-4
OVCAR-5 = tested on: OVCAR-5
OVCAR-8 = tested on: OVCAR-8
PC-3 = tested on: PC-3
RPMI-8226 = tested on: RPMI-8226
RXF 393 = tested on: RXF 393
SF-268 = tested on: SF-268
SF-295 = tested on: SF-295
SF-539 = tested on: SF-539
SK-MEL-28 = tested on: SK-MEL-28
SK-MEL-2 = tested on: SK-MEL-2
SK-MEL-5 = tested on: SK-MEL-5
SK-OV-3 = tested on: SK-OV-3
SN12C = tested on: SN12C
SNB-19 = tested on: SNB-19
SNB-75 = tested on: SNB-75
SR = tested on: SR
SW-620 = tested on: SW-620
T47D = tested on: T47D
TK-10 = tested on: TK-10
U-251 = tested on: U-251
UACC-257 = tested on: UACC-257
UACC-62 = tested on: UACC-62
UO-31 = tested on: UO-31

COc1cccc(/C=N/n2c(Cc3ccc(Cl)cc3)n[nH]c2=O)c1
GI50 (786-0): 25.1 µM (inactive)
GI50 (A498): 59 µM (inactive)
GI50 (A549): 58.6 µM (inactive)
GI50 (ACHN): 36.6 µM (inactive)
GI50 (BT-549): 26.1 µM (inactive)
GI50 (CAKI-1): 23.4 µM (inactive)
GI50 (CCRF-CEM): > 100 µM (inactive)
GI50 (COLO 205): > 100 µM (inactive)
GI50 (DU-145): 25.8 µM (inactive)
GI50 (EKVX): 29.6 µM (inactive)
GI50 (HCC 2998): > 100 µM (inactive)
GI50 (HCT-116): 47.8 µM (inactive)
GI50 (HCT-15): 99.3 µM
GI50 (HL-60): > 100 µM (inactive)
GI50 (HOP-62): 15.4 µM (inactive)
GI50 (HOP-92): 23.1 µM (inactive)
GI50 (HT-29): 12.4 µM (inactive)
GI50 (Hs-578T): 23.4 µM (inactive)
GI50 (IGROV-1): 33.5 µM (inactive)
GI50 (K562): > 100 µM (inactive)
GI50 (KM12): > 100 µM (inactive)
GI50 (LOX IMVI): 25.6 µM (inactive)
GI50 (M14): > 100 µM (inactive)
GI50 (MCF7): 29.9 µM (inactive)
GI50 (MDA-MB-231): 19.7 µM (inactive)
GI50 (MDA-MB-435): > 100 µM (inactive)
GI50 (MDA-N): > 100 µM (inactive)
GI50 (MOLT-4): > 100 µM (inactive)
GI50 (Malme-3M): 44.6 µM (inactive)
GI50 (NCI-H226): > 28.2 µM (inactive)
GI50 (NCI-H23): 27.9 µM (inactive)
GI50 (NCI-H460): > 91.4 µM (inactive)
GI50 (NCI-H522): 14.7 µM (inactive)
GI50 (NCI/ADR-RES): 30.6 µM (inactive)
GI50 (OVCAR-3): > 100 µM (inactive)
GI50 (OVCAR-4): > 92.9 µM (inactive)
GI50 (OVCAR-5): > 78.7 µM (inactive)
GI50 (OVCAR-8): 16.9 µM (inactive)
GI50 (PC-3): 56.5 µM (inactive)
GI50 (RPMI-8226): > 77.6 µM (inactive)
GI50 (RXF 393): 2 µM (inactive)
GI50 (SF-268): 15.9 µM (inactive)
GI50 (SF-295): 17.1 µM (inactive)
GI50 (SF-539): 15.8 µM (inactive)
GI50 (SK-MEL-28): > 100 µM (inactive)
GI50 (SK-MEL-2): 32.7 µM (inactive)
GI50 (SK-MEL-5): > 100 µM (inactive)
GI50 (SK-OV-3): 27.7 µM (inactive)
GI50 (SN12C): 24.3 µM (inactive)
GI50 (SNB-19): 27.3 µM (inactive)
GI50 (SNB-75): 11.7 µM (inactive)
GI50 (SR): > 76.9 µM (inactive)
GI50 (SW-620): > 100 µM (inactive)
GI50 (T47D): 16.1 µM (inactive)
GI50 (TK-10): 74 µM (inactive)
GI50 (U-251): 22.8 µM (inactive)
GI50 (UACC-257): > 100 µM (inactive)
GI50 (UACC-62): 34.2 µM (inactive)
GI50 (UO-31): > 73.5 µM (inactive)

C=CC[C@@]1([C@H](C=C)COCc2ccc(OC)cc2)CC[C@]2(C)OC(C)(C)[C@@H](c3ccccc3)N2C1=S
GI50 (786-0): 58.6 µM (inactive)
GI50 (A498): 71.3 µM (inactive)
GI50 (A549): 60.8 µM (inactive)
GI50 (ACHN): 43 µM (inactive)
GI50 (BT-549): 40.7 µM (inactive)
GI50 (CAKI-1): > 100 µM (inactive)
GI50 (CCRF-CEM): 46.5 µM (inactive)
GI50 (COLO 205): 19.1 µM (inactive)
GI50 (DU-145): 54.5 µM (inactive)
GI50 (EKVX): 26.2 µM (inactive)
GI50 (HCC 2998): 44.8 µM (inactive)
GI50 (HCT-116): 35.9 µM (inactive)
GI50 (HCT-15): 81.5 µM
GI50 (HL-60): 22.4 µM (inactive)
GI50 (HOP-62): 71.8 µM (inactive)
GI50 (HOP-92): 30 µM (inactive)
GI50 (HT-29): 29 µM (inactive)
GI50 (Hs-578T): 52.2 µM (inactive)
GI50 (K562): 27.4 µM (inactive)
GI50 (KM12): 36.9 µM (inactive)
GI50 (LOX IMVI): 40.8 µM (inactive)
GI50 (M14): 35.3 µM (inactive)
GI50 (MCF7): 31.1 µM (inactive)
GI50 (MDA-MB-231): 46.2 µM (inactive)
GI50 (MDA-MB-435): > 100 µM (inactive)
GI50 (MDA-N): 49.5 µM (inactive)
GI50 (MOLT-4): 52.4 µM (inactive)
GI50 (Malme-3M): 37.6 µM (inactive)
GI50 (NCI-H226): 39.5 µM (inactive)
GI50 (NCI-H23): 40.4 µM (inactive)
GI50 (NCI-H460): 44.4 µM (inactive)
GI50 (NCI-H522): 20.9 µM (inactive)
GI50 (NCI/ADR-RES): > 100 µM (inactive)
GI50 (OVCAR-3): 59.4 µM (inactive)
GI50 (OVCAR-4): 40.7 µM (inactive)
GI50 (OVCAR-5): 50 µM (inactive)
GI50 (OVCAR-8): 48.5 µM (inactive)
GI50 (PC-3): 31.4 µM (inactive)
GI50 (RPMI-8226): 33.5 µM (inactive)
GI50 (RXF 393): 86.7 µM (inactive)
GI50 (SF-268): 53.5 µM (inactive)
GI50 (SF-295): 43.1 µM (inactive)
GI50 (SF-539): 95.3 µM (inactive)
GI50 (SK-MEL-28): 57.1 µM (inactive)
GI50 (SK-MEL-2): 23.5 µM (inactive)
GI50 (SK-MEL-5): 25.2 µM (inactive)
GI50 (SK-OV-3): 86.5 µM (inactive)
GI50 (SN12C): 62.1 µM (inactive)
GI50 (SNB-19): 35.2 µM (inactive)
GI50 (SNB-75): 60.1 µM (inactive)
GI50 (SR): 73.5 µM (inactive)
GI50 (SW-620): 53 µM (inactive)
GI50 (T47D): 37.3 µM (inactive)
GI50 (TK-10): 52.7 µM (inactive)
GI50 (U-251): 34.2 µM (inactive)
GI50 (UACC-257): 34.8 µM (inactive)
GI50 (UACC-62): 28.2 µM (inactive)
GI50 (UO-31): > 100 µM (inactive)

OCCN1CCN(c2nc(N3CCCC3)c3nc(Cl)c(NCc4ccccc4)nc3n2)CC1
GI50 (786-0): 1.95 µM (inactive)
GI50 (A498): 12.5 µM (inactive)
GI50 (A549): 6.59 µM (inactive)
GI50 (ACHN): 7.8 µM (inactive)
GI50 (BT-549): 6.84 µM (inactive)
GI50 (CAKI-1): 9.44 µM (inactive)
GI50 (CCRF-CEM): 3.8 µM (inactive)
GI50 (COLO 205): 2.47 µM (inactive)
GI50 (DU-145): 8.15 µM (inactive)
GI50 (EKVX): 11.3 µM (inactive)
GI50 (HCC 2998): 1.93 µM (inactive)
GI50 (HCT-116): 5.6 µM (inactive)
GI50 (HCT-15): 2.84 µM
GI50 (HL-60): 3.81 µM (inactive)
GI50 (HOP-62): 3.58 µM (inactive)
GI50 (HOP-92): 5.16 µM (inactive)
GI50 (HT-29): 3.18 µM (inactive)
GI50 (Hs-578T): 8.61 µM (inactive)
GI50 (IGROV-1): 8.43 µM (inactive)
GI50 (K562): 2.54 µM (inactive)
GI50 (KM12): 4.97 µM (inactive)
GI50 (LOX IMVI): 5.4 µM (inactive)
GI50 (M14): 3.03 µM (inactive)
GI50 (MCF7): 4.31 µM (inactive)
GI50 (MDA-MB-231): 9.82 µM (inactive)
GI50 (MDA-MB-435): 3.98 µM (inactive)
GI50 (MDA-N): 3.7 µM (inactive)
GI50 (MOLT-4): 3.19 µM (inactive)
GI50 (Malme-3M): 6.56 µM (inactive)
GI50 (NCI-H226): 17.6 µM (inactive)
GI50 (NCI-H23): 14.5 µM (inactive)
GI50 (NCI-H460): 5.58 µM (inactive)
GI50 (NCI-H522): 5.04 µM (inactive)
GI50 (NCI/ADR-RES): 10.9 µM (inactive)
GI50 (OVCAR-3): 8.02 µM (inactive)
GI50 (OVCAR-4): 11.2 µM (inactive)
GI50 (OVCAR-5): 13.1 µM (inactive)
GI50 (OVCAR-8): 8.77 µM (inactive)
GI50 (PC-3): 9.27 µM (inactive)
GI50 (RPMI-8226): 2.83 µM (inactive)
GI50 (RXF 393): 1.32 µM (inactive)
GI50 (SF-268): 8.85 µM (inactive)
GI50 (SF-295): 5.53 µM (inactive)
GI50 (SF-539): 5.81 µM (inactive)
GI50 (SK-MEL-28): 4.09 µM (inactive)
GI50 (SK-MEL-2): 6.92 µM (inactive)
GI50 (SK-MEL-5): 3.51 µM (inactive)
GI50 (SK-OV-3): 13.7 µM (inactive)
GI50 (SN12C): 10.4 µM (inactive)
GI50 (SNB-19): 7.62 µM (inactive)
GI50 (SNB-75): 3.27 µM (inactive)
GI50 (SR): 2.54 µM (inactive)
GI50 (SW-620): 3.78 µM (inactive)
GI50 (T47D): 5.32 µM (inactive)
GI50 (TK-10): 6.85 µM (inactive)
GI50 (U-251): 5.65 µM (inactive)
GI50 (UACC-257): 5.15 µM (inactive)
GI50 (UACC-62): 4.65 µM (inactive)
GI50 (UO-31): 4.89 µM (inactive)

From ChEMBL document CHEMBL1201862, “PubChem BioAssay data set” (2004)
